Test results reported in patent US8178530B2, “Imidazolopyrazine compounds useful for the treatment of degenerative and inflammatory diseases” (Janssen Pharmaceutica NV, priority 2006, dated 2012).

Columns and labels:
[1] = system: TNFα release by human PBMCs; assay: Cytokine release by LPS-stimulated human PBMCs (TNFα ELISA); assay type: cell-based; conditions: PBMC, LPS 1 μg/mL, 24 hr
Procedure, shortened: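 Human PBMCs at 2.5E6 cells/mL preincubated 1 h with compound (0.2% DMSO final), then stimulated with 1 μg/mL LPS (E. coli 026:B6) for 24 h. Supernatant TNFα measured by chemiluminescent sandwich ELISA; percent inhibition normalised to LPS/vehicle and unstimulated controls, EC50 fitted from 8-point 1/3 dilutions.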

MAPKAPK5 = biological target: T1, MAPKAPK5 (Homo sapiens, UniProt Q8IW41); assay: MAPKAP-K5 assay (FlashPlate, 33P-ATP); assay type: biochemical; conditions: 0.6 μM ATP, 30 minutes at room temperature
T1 construct: 1 mU MAPKAP-K5
T1 sequence (Q8IW41 1-473): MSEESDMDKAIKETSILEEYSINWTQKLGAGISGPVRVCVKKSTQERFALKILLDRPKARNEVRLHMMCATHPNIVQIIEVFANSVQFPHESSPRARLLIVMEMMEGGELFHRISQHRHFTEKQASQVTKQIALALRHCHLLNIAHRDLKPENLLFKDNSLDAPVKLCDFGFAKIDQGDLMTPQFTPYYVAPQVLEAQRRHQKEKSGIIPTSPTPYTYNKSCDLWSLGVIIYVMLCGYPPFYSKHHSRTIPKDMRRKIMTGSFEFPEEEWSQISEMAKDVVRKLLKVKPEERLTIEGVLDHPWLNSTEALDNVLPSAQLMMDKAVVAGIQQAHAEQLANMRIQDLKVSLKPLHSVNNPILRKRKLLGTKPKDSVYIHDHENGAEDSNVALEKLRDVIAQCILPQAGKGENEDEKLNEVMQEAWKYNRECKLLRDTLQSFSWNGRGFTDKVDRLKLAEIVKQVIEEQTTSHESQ
Method: 3 μM MAPKAP-K5 peptide substrate

IC50 (MAPKAPK5) [nM]	Structure (SMILES)	EC50 [1] [nM]
101 to 500	CC(C)N1CCN(c2ccc(Nc3ncc(-c4coc(C(N)=O)c4)n4ccnc34)cc2)CC1 [Compound 204, 4-{8-[4-(4-Isopropyl-piperazin-1-yl)-phenylamino]-imidazo[1,2-a]pyrazin-5-yl}-furan-2-carboxylic acid amide]	> 1000
1 to 100	CC(C)N1CCN(c2ccc(Nc3ncc(-c4ccc5c(c4)CNC5=O)n4ccnc34)cc2)CC1 [Compound 205, 5-{8-[4-(4-Isopropyl-piperazin-1-yl)-phenylamino]-imidazo[1,2-a]pyrazin-5-yl}-2,3-dihydro-isoindol-1-one]	> 1000
1 to 100	CC(C)N1CCN(c2ccc(Nc3ncc(-c4ccc5c(c4)CNC5=O)n4ccnc34)cn2)CC1 [Compound 210, 5-{8-[6-(4-Isopropyl-piperazin-1-yl)-pyridin-3-ylamino]-imidazo[1,2-a]pyrazin-5-yl}-2,3-dihydro-isoindol-1-one]	> 1000
> 1000	CN(C)Cc1cc(Nc2ncc(-c3cn[nH]c3)n3ccnc23)ccc1N1CCOCC1 [Compound 218, (3-Dimethylaminomethyl-4-morpholin-4-yl-phenyl)-[5-(1H-pyrazol-4-yl)-imidazo[1,2-a]pyrazin-8-yl]-amine]	> 1000
